In the supplement of paper PMC11451515:

Tested on: NOMO1
Experiment: cell viability relative to DMSO control; higher = less cytotoxic
Settings: 48 h
Summary of the method: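 Before seeding, each leukemia line was adapted for at least four passages in each medium. NOMO1 or SEM cells (500 cells/well) and P12-Ichikawa cells (1000 cells/well) went into 1536-well plates at 5 μl, then received library compounds in DMSO by pin dosing across 11 threefold concentrations, 47 μM to 0.79 nM. Readout was CellTiter-Glo One luminescence after 48 h at 37°C, and viability is given as a per-plate percentage of DMSO wells, with cell-free wells as background.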

[1] = HPLM + 10% dialyzed FBS, 0.000781 µM
[2] = HPLM + 10% dialyzed FBS, 0.00234 µM
[3] = HPLM + 10% dialyzed FBS, 0.00702 µM
[4] = HPLM + 10% dialyzed FBS, 0.0211 µM
[5] = HPLM + 10% dialyzed FBS, 0.0632 µM
[6] = HPLM + 10% dialyzed FBS, 0.19 µM
[7] = HPLM + 10% dialyzed FBS, 0.569 µM
[8] = HPLM + 10% dialyzed FBS, 1.71 µM
[9] = HPLM + 10% dialyzed FBS, 5.12 µM
[10] = HPLM + 10% dialyzed FBS, 15.4 µM
[11] = HPLM + 10% dialyzed FBS, 46.1 µM
[12] = RPMI 5 mM glucose + 10% FBS, 0.000781 µM
[13] = RPMI 5 mM glucose + 10% FBS, 0.00234 µM
[14] = RPMI 5 mM glucose + 10% FBS, 0.00702 µM
[15] = RPMI 5 mM glucose + 10% FBS, 0.0211 µM
[16] = RPMI 5 mM glucose + 10% FBS, 0.0632 µM
[17] = RPMI 5 mM glucose + 10% FBS, 0.19 µM
[18] = RPMI 5 mM glucose + 10% FBS, 0.569 µM
[19] = RPMI 5 mM glucose + 10% FBS, 1.71 µM
[20] = RPMI 5 mM glucose + 10% FBS, 5.12 µM
[21] = RPMI 5 mM glucose + 10% FBS, 15.4 µM
[22] = RPMI 5 mM glucose + 10% FBS, 46.1 µM
[23] = RPMI 5 mM glucose + 10% dialyzed FBS, 0.000781 µM
[24] = RPMI 5 mM glucose + 10% dialyzed FBS, 0.00234 µM
[25] = RPMI 5 mM glucose + 10% dialyzed FBS, 0.00702 µM
[26] = RPMI 5 mM glucose + 10% dialyzed FBS, 0.0211 µM
[27] = RPMI 5 mM glucose + 10% dialyzed FBS, 0.0632 µM
[28] = RPMI 5 mM glucose + 10% dialyzed FBS, 0.19 µM
[29] = RPMI 5 mM glucose + 10% dialyzed FBS, 0.569 µM
[30] = RPMI 5 mM glucose + 10% dialyzed FBS, 1.71 µM
[31] = RPMI 5 mM glucose + 10% dialyzed FBS, 5.12 µM
[32] = RPMI 5 mM glucose + 10% dialyzed FBS, 15.4 µM
[33] = RPMI 5 mM glucose + 10% dialyzed FBS, 46.1 µM

Compound	cell viability [1]	cell viability [2]	cell viability [3]	cell viability [4]	cell viability [5]	cell viability [6]	cell viability [7]	cell viability [8]	cell viability [9]	cell viability [10]	cell viability [11]	cell viability [12]	cell viability [13]	cell viability [14]	cell viability [15]	cell viability [16]	cell viability [17]	cell viability [18]	cell viability [19]	cell viability [20]	cell viability [21]	cell viability [22]	cell viability [23]	cell viability [24]	cell viability [25]	cell viability [26]	cell viability [27]	cell viability [28]	cell viability [29]	cell viability [30]	cell viability [31]	cell viability [32]	cell viability [33]
C[C@H]1C[C@H]2[C@@H]3CC[C@](O)(C(=O)CO)[C@@]3(C)C[C@H](O)[C@@H]2[C@@]\4(C)/C=C\C(=O)\C=C14	82.1%	110%	115%	104%	113%	115%	92.3%	89.9%	89.6%	94.1%	95.6%	81.4%	95.3%	90.6%	101%	104%	97.1%	93.1%	89.5%	89.5%	88.4%	92.8%	72.9%	88.5%	91.4%	102%	102%	93.1%	100%	90.4%	101%	105%	84.6%
C[C@]12Cc3cn[nH]c3C[C@@H]1CC[C@@H]1[C@@H]2CC[C@@]2(C)[C@H]1CC[C@]2(C)O	–	–	–	–	–	–	–	–	–	–	–	97.1%	102%	100%	105%	106%	103%	109%	112%	100%	92.4%	90.7%	102%	119%	122%	120%	114%	105%	103%	92.8%	95.3%	109%	96.3%
N\C1=N\C2=C(N=C[N]2COCCO)C(=O)N1	93.1%	106%	123%	112%	103%	119%	104%	125%	98.3%	102%	73.4%	106%	96.8%	109%	109%	103%	95.4%	98.1%	103%	103%	97.4%	96.9%	112%	101%	103%	97.8%	93.8%	113%	106%	109%	107%	100%	71.5%
COc1cc(Nc2c(C#N)cnc3cc(OCCCN4CCN(C)CC4)c(OC)cc23)c(Cl)cc1Cl	123%	121%	118%	111%	116%	105%	121%	83.6%	52.1%	9.63%	7.18%	109%	115%	126%	119%	126%	118%	112%	106%	82.4%	13.7%	7.22%	103%	105%	112%	113%	116%	114%	112%	120%	85.8%	26%	10.6%
OC1=CC=C(C=C1)\C2=C\OC3=C(C(=CC(=C3)O)O)C2=O	110%	112%	117%	120%	116%	122%	124%	113%	107%	137%	117%	108%	111%	107%	117%	104%	115%	108%	109%	112%	123%	110%	94.7%	113%	99.8%	110%	118%	117%	107%	108%	118%	115%	103%
COc1cccc2c1C(=O)c1c(O)c3c(c(O)c1C2=O)C[C@@](O)(C(=O)CO)C[C@@H]3O[C@H]1C[C@H](N)[C@H](O[C@H]2CCCCO2)[C@H](C)O1	124%	106%	100%	135%	117%	116%	117%	108%	43%	113%	63%	120%	128%	122%	128%	114%	128%	123%	125%	22.9%	124%	101%	119%	116%	121%	115%	104%	124%	106%	123%	41.7%	110%	102%
COc1ccc(C(=O)c2c(C)n(CCN3CCOCC3)c3ccccc23)cc1	87.4%	99.9%	98.1%	108%	107%	129%	107%	104%	95.2%	90.2%	87.6%	91.7%	92.5%	94.4%	91.7%	85.4%	99.6%	82.9%	97.1%	95.7%	88.6%	93.7%	87.1%	84.2%	92.5%	88.5%	104%	76.9%	98.9%	92%	87.9%	86.6%	92%
Cc1c(-c2cccc3c(CCCOc4cccc5ccccc45)c(C(=O)O)n(Cc4cccnc4)c23)c(COc2ccc(N3CCN([S+](=O)([O-])N(C)C)CC3)cc2)nn1C	88.7%	85.4%	83.8%	94.1%	108%	86.3%	85.9%	74.2%	89.2%	73.8%	55.4%	92.5%	97.3%	80.4%	85.7%	87.9%	94.7%	90.5%	87.8%	74.9%	79.3%	85.2%	97%	97.1%	92.5%	96.1%	95.9%	94.1%	86%	76.7%	81.4%	84.7%	72.5%
